# Tested on: HIV with mutations in the HIV protease sequence
# Assay: Phenotypic fold resistance to protease inhibitors, protease mutations 84A/84L/84C/54M/54L/54V in a background (Examples 8-13)
# Format: cell-based, HIV-1
# Method: As is the case with the genotyping assays, the recombinant virus assay starts with the amplification of viral target sequences by means of PCR. The amplicons are incorporated into a proviral laboratory clone with sequences homologous to those present in the amplicon deleted. This generates a stock of chimeric viruses. The viruses are tested for their ability to grow in the presence of different concentrations of drugs. Results are obtained by calculating IC50 values for each inhibitor and by reporting the results as IC50 values, expressed in μM concentrations, or by computing the ratio of the IC50 values found for the chimeric virus to the IC50 values found for a wild type susceptible laboratory virus tested in parallel. In the latter case, resistance is expressed as “fold-resistance” compared to a wild-type susceptible HIV-1 strain. In order to meet the need for high-volume testing and a short turn-around time for an individual test, the latest generation of phenotyping assays has undergone further modifications. The use of reporter gene systems for susceptibility testing allows the implementation of laboratory automation and standardization. See Pauwels, et al., J. Virol. Methods 20, 309-321 (1998); Paulous, S., et al., International Workshop on HIV Drug Resistance, Treatment Strategies and Eradication, St. Petersburg, Fla., USA. Abstr. 46 (1997); and Deeks, S. G., et al., 2nd International Workshop on HIV Drug Resistance and Treatment Strategies, Lake Maggiore, Italy. Abstr. 53 (1998).
# The ANTIVIROGRAM® assay (Virco) (WO 97/27480) is based on homologous recombination of patient derived HIV-1 gag/PR/RT sequences into a proviral HIV-1 clone correspondingly deleted for the gag/PR/RT sequences. See Pauwels, et al., J. Virol. Methods 20, 309-321 (1998). A similar assay (Phenosense ViroLogic) is based on enzymatic ligation of patient-derived PR/RT sequences into a correspondingly deleted proviral vector carrying an indicator gene, luciferase, inserted in the deleted HIV-1 envelope gene. See Deeks, S. G., et al., 2nd International Workshop on HIV Drug Resistance and Treatment Strategies, Lake Maggiore, Italy. Abstr. 53 (1998). Hertogs et al. Antimicrob. Agents Chemother. 44(3) 568-573 (2000) the disclosures of which are herein incorporated by reference.
# The methods of monitoring HIV-1 drug resistance, may also be used in combination with phenotypic drug resistance testing of viral isolates. For example, in one embodiment, a phenotypic test is utilized that is based upon the construction of chimeric HIV-1 strains composed of the protease (PR) and reverse transcriptase (RT) gene sequences which are isolated and amplified from the patient viral RNA. These strains may subsequently be recombined inside CD4+ T cells with a standard laboratory isogenic (HXB2) HIV-1 DNA construct from which the PR/RT gene sequences were deleted. The recombinant strains may then be grown in the presence of the above-mentioned antiviral drugs and the susceptibility of the viral isolates may be expressed as fold-change value of the IC50 of the drug on the patient isolates over the IC50 of the drug on a wild-type laboratory reference strain.
smiles,measurement,setting,value
"CC(C)(C)NC(=O)[C@@H]1CN(Cc2cccnc2)CCN1C[C@@H](O)C[C@@H](Cc1ccccc1)C(=O)N[C@H]1c2ccccc2C[C@H]1O [Indinavir, indinavir]",mean fold increase in resistance,"Table 9 #1, protease genotype WT",0.9 fold
same,mean fold increase in resistance,"Table 9 #2, protease genotype 10I",0.7 fold
same,mean fold increase in resistance,"Table 9 #3, protease genotype 46I",0.6 fold
same,mean fold increase in resistance,"Table 9 #4, protease genotype 46I + 84V",2.6 fold
same,mean fold increase in resistance,"Table 9 #5, protease genotype 46I + 84A",26.8 fold
same,mean fold increase in resistance,"Table 9 #6, protease genotype 10I + 46I",2.9 fold
same,mean fold increase in resistance,"Table 9 #7, protease genotype 10I + 46I + 84V",2.4 fold
same,mean fold increase in resistance,"Table 9 #8, protease genotype 10I + 46I + 84A",33.4 fold
same,mean fold increase in resistance,"Table 9 #9, protease genotype 10L/I + 46I + 84A",44.5 fold
same,mean fold increase in resistance,"Table 9 #10, protease genotype 10I + 46I + 84A",26 fold
same,mean fold increase in resistance,"Table 9 #11, protease genotype 46I + 71V",3.7 fold
same,mean fold increase in resistance,"Table 9 #12, protease genotype 46I + 71V + 84V/I",3.1 fold
same,mean fold increase in resistance,"Table 9 #13, protease genotype 46I + 71V + 84A",56.5 fold
same,mean fold increase in resistance,"Table 9 #14, protease genotype 10F + 46I + 71V",22.2 fold
same,mean fold increase in resistance,"Table 9 #15, protease genotype 10I + 46I + 71V + 84V",50.5 fold
same,mean fold increase in resistance,"Table 9 #16, protease genotype 10I + 46I + 71V + 84A",45.9 fold
same,mean fold increase in resistance,"Table 9 #17, protease genotype 10V + 46I + 71T + 84A",57.9 fold
same,mean fold increase in resistance,"Table 9 #18, protease genotype 10I + 46I + 71V + 77I",2.2 fold
same,mean fold increase in resistance,"Table 9 #19, protease genotype 10I + 46I + 71V + 77I + 84V",2.2 fold
same,mean fold increase in resistance,"Table 9 #20, protease genotype 10I + 46I + 71V + 77I + 84A",57.9 fold
same,mean fold increase in resistance,"Table 9 #21, protease genotype 10I + 33L/I + 46I + 71V + 77V/I + 84A",31.4 fold
same,mean fold increase in resistance,"Table 10 #1, protease genotype 10I + 36I + 71V",1.4 fold
same,mean fold increase in resistance,"Table 10 #2, protease genotype 10I + 36I + 71I + 84V",1.0 fold
same,mean fold increase in resistance,"Table 10 #3, protease genotype 10I + 36I + 71I + 84L",3.7 fold
same,mean fold increase in resistance,"Table 11 #1, protease genotype WT",0.9 fold
same,mean fold increase in resistance,"Table 11 #2, protease genotype 84V",0.7 fold
same,mean fold increase in resistance,"Table 11 #3, protease genotype 84C",2.7 fold
same,mean fold increase in resistance,"Table 11 #4, protease genotype 10I",0.7 fold
same,mean fold increase in resistance,"Table 11 #5, protease genotype 10I + 84V",1.8 fold
same,mean fold increase in resistance,"Table 11 #6, protease genotype 10I + 84C",4.3 fold
same,mean fold increase in resistance,"Table 11 #7, protease genotype 77I",0.4 fold
same,mean fold increase in resistance,"Table 11 #8, protease genotype 77I + 84V",2.5 fold
same,mean fold increase in resistance,"Table 11 #9, protease genotype 77I + 84C",3.1 fold
same,mean fold increase in resistance,"Table 11 #10, protease genotype 77I + 84C",3.2 fold
same,mean fold increase in resistance,"Table 11 #11, protease genotype 10I + 24I + 36I + 46I + 71V + 84C",7.5 fold
same,Fold change in IC50,"Table 12, V19263, genotype 77I",0.4 fold
same,Fold change in IC50,"Table 12, V20160, genotype WT",0.9 fold
same,Fold change in IC50,"Table 12, V021667, genotype 10I",0.7 fold
same,Fold change in IC50,"Table 12, V030496, genotype 10I + 77I",0.4 fold
same,Fold change in IC50,"Table 12, V048869, genotype 10I + 54M + 77I + 90M",7.1 fold
same,Fold change in IC50,"Table 12, V048872, genotype 33F + 54M + 77I + 90M",3.2 fold
same,Fold change in IC50,"Table 12, V048873, genotype 33F + 54M + 77I + 90M",1.7 fold
same,Fold change in IC50,"Table 12, V048877, genotype 10I + 33F + 77I + 90M",2.9 fold
same,Fold change in IC50,"Table 12, V048878, genotype 10I + 33F + 54M + 71V + 77I + 90M",5.2 fold
same,Fold change in IC50,"Table 12, V048879, genotype 10I + 33F + 54M + 71V + 77I + 90M",6.5 fold
same,Fold change in IC50,"Table 12, V048880, genotype 10I + 33F + 77I + 90M",1.3 fold
same,Fold change in IC50,"Table 12, V052940, genotype 71V",0.7 fold
same,Fold change in IC50,"Table 12, V052942, genotype 10I + 71V",0.6 fold
same,Fold change in IC50,"Table 12, V052943, genotype 10I + 90M",0.5 fold
same,Fold change in IC50,"Table 12, V052944, genotype 10I + 90M",0.5 fold
same,Fold change in IC50,"Table 12, V052945, genotype 77I + 90M",0.6 fold
same,Fold change in IC50,"Table 12, V052946, genotype 71V + 90M",0.9 fold
same,Fold change in IC50,"Table 12, V052947, genotype 10I + 77I + 90M",2.9 fold
same,Fold change in IC50,"Table 12, V052948, genotype 10I + 71V + 90M",8.6 fold
same,Fold change in IC50,"Table 12, V052949, genotype 10I + 71V + 77I + 90M",2.7 fold
same,Fold change in IC50,"Table 12, V052950, genotype 33F",0.6 fold
same,Fold change in IC50,"Table 12, V052951, genotype 33F + 77I",0.4 fold
same,Fold change in IC50,"Table 12, V052953, genotype 10I + 33F + 77I",0.8 fold
same,Fold change in IC50,"Table 12, V052954, genotype 33F + 77I + 90M",1.7 fold
same,Fold change in IC50,"Table 12, V052955, genotype 33F + 71V + 90M",5.3 fold
same,Fold change in IC50,"Table 12, V052977, genotype 10I + 33F + 54M",1.8 fold
same,Fold change in IC50,"Table 12, V052978, genotype 10I + 33F + 54M + 71V + 90M",5.4 fold
same,Fold change in IC50,"Table 12, V052979, genotype 10I + 54M",1.8 fold
same,Fold change in IC50,"Table 12, V052980, genotype 10I + 54M + 90M",1.3 fold
same,Fold change in IC50,"Table 12, V052981, genotype 10I + 54M + 71V + 90M",3.2 fold
same,Fold change in IC50,"Table 12, V052982, genotype 10I + 54M + 71V + 77I + 90M",2.4 fold
same,Fold change in IC50,"Table 12, V053832, genotype 10I + 33F",0.4 fold

# From patent US8574831B2, “Mutational profiles in HIV-1 reverse transcriptase correlated with phenotypic drug resistance” (Virco N.V., priority 2000, dated 2013)
